In patent US7141541B1, “Use of peptides” (University Court of the University of Dundee, priority 1999, dated 2006):
Where a SMILES comes first, the peptide text is derived from it. Where no end group is shown, it is not given here. The star is where a group is joined. Biotin = O=C1N[C@H]2[C@H](CS[C@H]2CCCCC(=O)*)N1; Cbz = O=C(OCc1ccccc1)*; CH2F = FC*

Legend:
serum deprived cells = assay: protection from peptide-induced cell death by serum / MAP kinase activation (FIG. 15); assay type: cell-based
Experimental: FIG. 15 illustrates that the acute activation of MAP kinase protects cells from 4E-binding peptide induced cell death; and
In the presence of 10% ECS, cells were resistant to treatment with 20 μm of the peptides. Cells only died if they were serum deprived for 72 hours (more than 85%) within 15 minutes after the peptide had been applied (see FIG. 15). However, if serum deprived cells (72 h) were pre-treated with 10% FCS or with 20 nM PMA (phorbol ester) for 15 minutes before the peptides were added, the cells survived the subsequent peptide treatment (60–70%).
Furthermore, if the serum deprived cells were instead pre-treated with the MAPK inhibitor PD098059 for 1 hour before 10% FCS was added, approximately 80–90% of the cells died.

MRC5 cells [1] = assay: peptide-induced cell death (apoptosis) in MRC5 cells; assay type: cell-based; details: for biological effect (apoptosis): MRC5 cells / cultured mammalian cells
Source text: FIG. 8 is a table illustrating the induction of apoptosis by eIF4G peptides in MRC5 cells;
FIG. 9 is a summary of the results of inhibition of eIF4G(413-424)-induced apoptosis;

MRC5 cells [2] = assay: cell survival by MTT assay; assay type: cell-based; details: for cell death / cell viability: various concentrations, 72 h serum-starved MRC5 cells, FIGS. 13b,c,d
Experimental: FIGS. 13a–d are graphs showing cell survival (% of control, untreated cells) as measured by MTT assay. a) Lane 1: 10 μM BP2 peptide added to serum-fed cells or Lane 2, 3, 4: 10 μM BP2 peptide added to 24 h, 48 h or 72 h serum-starved cells respectively. Lane 5: 10 μM BP2 YLL-AAA added to 72 h serum starved cells. Lane 6: 72 h serum starved cells incubated in 10% serum for 1 h prior to addition to 10 μM BP2 peptide. Lane 7: 72 h serum starved cells incubated with 100 μg/ml cycloheximide followed by a 1 h incubation with 10% serum prior to the addition of 10 μM BP2 peptide. In all cases the cells were then further incubated for 1 h in 0.1 mg/ml MTT. Cells were lysed in DMSO and absorbance was measured at […]. b–d) Varying concentrations of peptides were added to 72 h serum starved MRC5 cells. After 30 min incubation the cells were then further incubated for 1 h in 0.1 mg/ml MTT. Cells were lysed in DMSO and absorbance was measured at 570 nm.

MRC5 cells [3] = assay: MTT assay with general translation inhibitors (FIG. 16); assay type: cell-based; details: for protection against the effect of the Hu4G peptide: pre-incubation 30 min prior to 10 μM Hu4G peptide; for cell killing: serum deprived cells
Experimental: (§1) FIG. 16 illustrates that eIF4E binding peptide cell death is not through eIF4E's known role in mRNA translation. a) 72 h serum-starved MRC5 cells were treated with 100 μg/ml and 10 μg/ml cylcoheximide, 1 μg/ml and 0.1 μg/ml pactamycine or 10 μM Hu4G peptide for 2 h prior to a MTT assay. Cells were pulsed labelled with [^35S]methionine for 30 min after addition of the inhibitors/peptide. The incorporation of [^35S]methionine into protein was determined following hot trichloroacetic acid precipitation. b) 72 h serum-starved MRC5 cells were treated with 100 μg/ml cycloheximide (Chx), 1 μg/ml pactamycine (Pact) or c) MRC5 cells which had been starved of serum for 72 h were pre-incubated with 100 μg/ml cycloheximide or 1 μg/ml pactamycine for 30 min prior to addition of 10 μM Hu4G peptide. Cells were then further incubated for 1.5 h prior to a MTT assay. Results from three independent experiments (+/− SEM).

MRC5 cells [4] = assay: [35S]methionine incorporation into protein; assay type: cell-based; details: serum deprived cells, 30 minutes
Experimental: as §1
Serum deprived cells were treated with the general translation inhibitors Cyclohexamide or Pactamycin at indicated concentrations or the H4G peptide in the presence of 35S-Met for 30 minutes (see FIGS. 16a,b). Cells were lysed and the amount of translation was estimated by counting incorporated 35S-Met in precipitated protein fractions.

recombinant human eIF4E [5] = molecular target: recombinant human eIF4E (Homo sapiens, UniProt P06730); assay: in vitro binding (pull-down) assay with eIF4E; details: for interaction with human eIF4E: FIG. 12b(i), 1 μg recombinant eIF4E, 0.2 mM biotinylated peptide, 1 h at 4° C.
Experimental: (§2) Sequences of biotinylated, penetratin-linked peptides. U=Norvaline, a substitution for cysteine. Conserved residues that are important in binding to eIF4E are underlined. b). In vitro binding assay. i) 1 μg recombinant eIF4E was incubated with 0.2 mM biotinylated peptides in a total volume of 50 μl wash buffer (1×PBS/250 mM Kcl) for 1 h at 4° C. ii) 0.2 mM Hu4G or Hu4G YLL-AAA was incubated with 200 μg MRC5 cell lysate for 1 h at 4° C. in a total volume of 50 μl wash buffer. In all cases the biotinylated peptides and associated proteins were pulled down using streptavidin agarose. The proteins were separated by SDS PAGE and subjected to Western blotting using anti-eIF4E antibody. Detection was by ECL;
In order to study directly the role of eIF4E in cell transformation, a series of biotinylated synthetic peptides (Peptides synthesised by Cyclacel) corresponding to the eIF4E interacting domain (binding motif) of human eIF4G, and wheat eIF4G and alanine substituted peptides thereof were synthesised (see FIG. 12a) and tested for their capacity to interact with ^35S-Met labelled in vitro translated human eIF4E (NB. Peptides BP1 and BP1 YLM-AAA were not biotinylated). Peptides were coupled to streptavidin coated agarose beads by a N-terminus linked biotin group and washed in PBS/0.2% Tween 3× before being incubated for 1 hour at +4° C. with in vitro translated human eIF4E. Beads were washed as above and boiled for 5 min. in SDS loading buffer before the peptide bound proteins were separated on a 10% SDS gel. The bands were visualised by autoradiography.

MRC5 cells [6] = assay: mitochondrial permeability transition (JC1 dye, confocal microscopy); assay type: cell-based; details: 10 μM peptide, serum-starved MRC5 cells
Experimental: (§3) MRC5 cells were incubated with 10 μM Hu4G peptide for 10 min. Cells visualised with fluorescein by fluorescence microscopy. […] 80% of cells incubated with the 10 μM Hu4G peptide fluoresced positive. d) Images of DAPI-stained MRC5 cells incubated with either 20 μM Hu4G or Hu4G YLL-AAA peptide for 40 min. Arrows indicate the position of a cell with either a condensed nucleus (top right) or a nucleus with a punctate appearance (bottom left). e) Visualisation of effects on the MPT. Serum-starved MRC5 cells were loaded with 0.1 μM JCl for 30 min prior to addition of 10 μM peptide. Changes in mitochondrial permeability were viewed by laser scanning confocal microscopy (krypton/argon laser) using identical setting. Green channel: excitation 488 nm/emission 522 nm. Red channel: excitation 568 nm/emission 585 nm. Channels were collected separately to avoid cross over. Images were taken 5 min after addition of the peptide;
An early event considered decisive in apoptosis is the opening of the mitochondrial permeability transition (MPT) pore (20–22). To characterise further the eIF4E-binding peptide-induced cell death, the development of the MPT was investigated in living MRC5 cells loaded with the fluorescent dye, JC1 (21).

MRC5 cells [7] = assay: TUNEL analysis; assay type: cell-based; details: 10 μM peptide
Experimental: as §3

[8] = system: HaCaT, Swiss 3T3, RATI and IIeLa cells; assay: cell survival in other cell-types; assay type: cell-based; details: results not shown
[9] = molecular target: T1, eIF4E in MRC5 cell lysate (Homo sapiens, UniProt P06730); assay: pull-down of eIF4E from MRC5 cell lysate; assay type: binding; details: 0.2 mM peptide, 200 μg MRC5 cell lysate, 1 h at 4° C.
T1 construct: endogenous in cells; host or cells: MRC5
Experimental: as §2

[10] = system: cap-independent translation initiation; assay: in vitro translation assay, cap-independent; assay type: biochemical
[11] = system: cap-dependent translation initiation; assay: in vitro translation assay, cap-dependent; assay type: biochemical
recombinant human eIF4E [12] = molecular target: T2, recombinant human eIF4E (human, UniProt P06730 1-217, limits assumed); assay: in vitro pull-down of recombinant human eIF4E (FIG. 5)
T2 construct: also called in vitro translated human eIF4E; eukaryotic initiation factor 4E

recombinant human eIF4E [13] = molecular target: T2, recombinant human eIF4E; assay: streptavidin agarose pull-down with biotinylated peptide
Experimental: as §2, with “FIG. 12 illustrates that eIF4E-binding peptides leads to rapid, dose-dependent, cell death. a). Sequences” for “Sequences”, “µg” for “μg”, “µl” for “μl”

T2 sequence (P06730 whole entry): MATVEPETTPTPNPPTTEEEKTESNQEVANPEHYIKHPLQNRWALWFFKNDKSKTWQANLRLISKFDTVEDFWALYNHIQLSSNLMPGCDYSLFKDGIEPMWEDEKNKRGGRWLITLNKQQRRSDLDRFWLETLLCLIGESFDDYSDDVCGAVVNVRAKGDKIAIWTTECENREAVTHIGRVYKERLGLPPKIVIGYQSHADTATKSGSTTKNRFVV
recombinant human eIF4E (Homo sapiens, UniProt P06730), sequence (P06730 whole entry): as above
T1 sequence (P06730 whole entry): as above

## COc1cccc(-c2cc(=O)c3ccccc3o2)c1N [PD098059, reference compound]
Serum deprived cells; serum deprived cells pre-treated for 1 hour before 10% FCS was added
  cells died: 80–90%
MRC5 cells [1]; pre-treatment with the MEK inhibitor
  effect on serum induced resistance to the peptides: serum induced resistance could be inhibited

## CCCCCCCCCCCCCC(=O)O[C@@H]1[C@@H](C)[C@@]2(O)[C@@H](C=C(CO)C[C@]3(O)C(=O)C(C)=C[C@@H]23)[C@@H]2C(C)(C)[C@]12OC(C)=O [PMA]
Serum deprived cells; serum deprived cells (72 h) pre-treated with 20 nM for 15 minutes
  cells survived the subsequent peptide treatment: 60–70%

## COC(=O)C[C@H](NC(=O)[C@H](C)NC(=O)[C@@H](NC(=O)OCc1ccccc1)C(C)C)C(=O)CF [ZVAD.fmk, reference compound] (Cbz-Val-Ala-Asp(OMe)-CH2F)
MRC5 cells [1]; MRC5 cells, results not shown
  effect of pre-treatment on peptide-induced cell death: did not affect peptide-induced cell death

## C[C@@H]1C[C@@H]([C@H](O)CC2CC(=O)NC(=O)C2)C(=O)[C@@H](C)C1 [cycloheximide]
MRC5 cells [2]; pre-incubation with 100 μg/ml, then 10% serum 1 h, then 10 μM BP2 peptide
  effect on protective effect of serum: could not be inhibited
MRC5 cells [3]
  protection against the effect of the Hu4G peptide: did not result in any protection
  cell killing: do not kill the cells
MRC5 cells [4]
  incorporation of 35S-Met (translation): block translation

## CC(=O)c1cccc(N[C@H]2[C@H](N)[C@@](NC(=O)N(C)C)([C@H](C)O)[C@@](C)(O)[C@@]2(O)COC(=O)c2c(C)cccc2O)c1 [pactamycin]
MRC5 cells [3]
  protection against the effect of the Hu4G peptide: did not result in any protection
  cell killing: do not kill the cells
MRC5 cells [4]
  incorporation of 35S-Met (translation): block translation

## Hu4G Y-A: singly alanine-substituted, penetratin-linked human eIF4G peptide (KKRADREFLLGFRQIKIWFQNRRMKWKK)
MRC5 cells [2]
  cell death / cell viability: reduced capacity to induce cell death
Recombinant human eIF4E [5]
  interaction with human eIF4E: lower binding affinity
MRC5 cells [1]; FIG. 8
  biological effect (apoptosis): intermediate biological effect

## Hu4G YLL-AAA: triple alanine substituted, penetratin-linked human eIF4G peptide, unable to bind eIF4E (KKRADREFAAGFRQIKIWFQNRRMKWKK)
MRC5 cells [6]
  changes in JC1 fluorescence (MPT pore opening): No changes in florescence were observed
Recombinant human eIF4E [5]
  interaction with human eIF4E: did not interact with eIF4E
MRC5 cells [7]
  TUNEL signal: No signal was observed
[8]
  cell survival: no effect on cell survival
MRC5 cells [1]; FIG. 8
  biological effect (apoptosis): did not cause the observed biological effect (apoptosis)
[9]
  binding of eIF4E in cell lysates: did not

## RVRYSRDQLLDL (listed as Triticum aestivum) [wheat eIF4G(62-73)]
Recombinant human eIF4E [5]; FIG. 4, FIG. 5
  binding to recombinant human eIF4E in vitro: bound to and pulled down more recombinant human eIF4F in vitro than human eIF4G(569-580) did
[10]
  inhibition of cap-independent translation initiation in vitro: not cap-independent translation initiation
[11]
  inhibition of cap-dependent translation initiation in vitro: found to inhibit cap-dependent translation initiation

## W4G: biotinylated, penetratin-linked peptide of the eIF4E binding motif of wheat eIF4G (Biotin-RVRYSRDQLLDLRQIKIWFQNRRMKWKK)
MRC5 cells [2]
  cell death / cell viability: rapid, dose-dependent, cell death
MRC5 cells [1]; FIG. 9
  effect of limited serum treatment on sensitivity to the peptide: Resistance
MRC5 cells [1]; serum starved cell lines, FIG. 8
  cell death (possibly by apoptosis): caused rapid cell death

B1: wheat eIF4G(62-73) (peptide)
peptide: RVRYSRDQLLDL
Recombinant human eIF4E [12]
  binding result: binds

B2: human eIF4G(569-580) (peptide)
peptide: KKRYDREFLLGF
notes: also called human eIF4G413-424
Recombinant human eIF4E [12]
  binding result: binds

B3: Human eIF4G(569-580)Y416AL421AL422A-Penetratin (peptide)
peptide: KKRADREFAAGFRQIKIWFQNRRMKWKK
modifications: not fully specified (N-terminus)
notes: Order of pieces from the printed name; also called Hu4G YLL-AAA; triple alanine human eIF4G peptide
Recombinant human eIF4E [13]
  binding result: no binding (tested: 0.2 mM peptide (FIG. 12b legend))
